Columns and labels:
[1] = test system: 60 to 80 years old subjects (Impaired Elderly and Healthy Elderly); assay: Verbal Learning Task (VLT) in 60 to 80 years old subjects, interim analysis; type: in vivo, human
Method: The study is conducted according to a double-blind, placebo-controlled, four-period cross-over design. Forty healthy subjects, both male and female within an age range of 60 to 80 years are planned to be included in the study in 2 groups: 1) 20 subjects with a memory performance between 1-2 Standard Deviation below the average for their age, gender, and educated level (Impaired Elderly) and 2) 20 subjects with age (±3 years), gender, and educational level matched (in order to speed up the study matching was stopped after the interim analysis) with an average memory performance between 0.5 Standard Deviation below and 0.5 Standard Deviation above from normative values (Healthy Elderly). Classification in terms of impaired or healthy elderly will be determined by a one-off testing of memory performance using the Rey Verbal Learning Task (Rey A; L'examen psychologique dans les cas d'encephalopathy traumatique 1958 Paris; Presses Universitaire de France; or Van der Elst et al; J Int Neuropsychol Soc 2005, 11 (3), pp 290-302) according to fully standardized procedures as applied in The Maastricht Aging Study (Jolles et al; Maastricht Aging Study; determinants of cognitive aging; Maastricht, The Netherlands, Neuropsych Publishers 1995). Normative data for each individual subject will be derived also from the Maastricht Aging Study using the regression formula as described by Van der Elst et al (Van der Elst et al; J Int Neuropsychol Soc 2005, 11 (3), pp 290-302).
All subjects within their corresponding groups (either Healthy Elderly n=20 or Impaired Elderly n=20) will be randomized in a double blind fashion to 1 of 4 treatment sequences, each sequence consisting of the following periods: A) Placebo+placebo; B) Roflumilast 100 mcg+placebo; C) Roflumilast […]+placebo and D) Roflumilast 1000 mcg (500+500 mcg) according to a computer-generated allocation schedule in a cross-over design. Between each of the four treatment sequences there will be a 12 days washout period.
Cognitive status will be quantified using computerized cognitive battery, a validated tool for measuring the cognitive impairment in humans. The battery will consist of: VLT, Spatial Memory Task (SMT), Stroop Task, and Bond-Lader Visual Analogue Scales (BL-VAS).
Verbal learning task (VLT) The Rey VLT as modified by Riedel and colleagues (Riedel, Klaasen et al, Psychopharmacology (Berlin) 1999 Vol 141(4) pp 362-369) is used. This modified VLT maximizes the possibility of measuring enhancement rather than only impairment, by means of prolonging the list. The test consists of a list of 30 monosyllabic words (18 nouns and 12 adjectives). The words are shown on a computer screen for 1 second. Three trials with the same item sequence are presented. Each trial ends with a free recall of the words (immediate recall). Forty-five minutes after the first exposure, the subject is asked to recall as many words as possible (delayed recall). […] The words are shown on a computer screen for 2 seconds and subjects are asked to rate whether they were presented in the learning trial by a “yes/no” response. The inter-word interval is 2 seconds. 24 Hours after the immediate recall, subjects will return to the lab for a second delayed recall and recognition. The remaining 15 old words and 15 new words will be presented during recognition. EEG will be recorded during the immediate recall and the first recognition test on the test day. […]

[2] = test system: healthy adults (18 to 35 years); assay: EEG Event Related Potentials (P600) during VLT in healthy adults; type: in vivo, human; settings: single oral dose of 100 mcg
From the text: Event Related Potential Analysis An electroencephalogram (EEG) cap was used to place a set of 32 EEG electrodes according to the international 10-20 system on the subjects. Event Related Potentials (ERPs) were extracted by averaging the responses within an epoch of 100 ms before and 1000 ms after stimulus onset covering P300, N400, and P600. Separate averages were made for correct and incorrect responses within a task and for different trial types. EEG measurements were done simultaneously with VLT testing. ERPs were calculated from the words that were called during immediate recall (encoding), and from the words that were recognized and from those that were not during the recognition condition at 45 minutes. The ERP components of P300, N400, and P600 were compared to examine whether the initial stimulus processing during the learning trials differs from word to word. Finally, ERPs to the old and new items during the recognition task were measured.
Tests of Within-Subjects Contrasts were regarded for immediate and delayed free recall scores and for the summed immediate recall score (i.e. immediate 1+immediate 2+immediate 3). The factor Treatment (4 levels; placebo, roflumilast 100 mcg, roflumilast 300 mcg and roflumilast 1000 mcg) was included as a within subjects factor. […] Peak and latency values of three memory related ERP's were analysed; i.e. P300, N400 and P600. […]

**Q.** For `O=C(Nc1c(Cl)cncc1Cl)c1ccc(OC(F)F)c(OCC2CC2)c1` [roflumilast, N-(3,5-dichloropyridin-4-yl)-3-cyclopropylmethoxy-4-difluoromethoxybenzamide], which “number of words on the 3rd trial of VLT” value ([1]; 100 mcg single dose, elderly subjects, placebo 8.81) is on record?
**A.** 10.28 words

**Q.** And the “placebo-corrected fold-improvement in VLT” value ([1]; 100 mcg single dose, interim data of the elderly study)?
**A.** 1.16

**Q.** And the “increase in the number of correct words recalled after 45 min delayed recall trial of VLT, compared to placebo” value ([1]; 100 mcg single dose, pooled interim analysis)?
**A.** 1.7 words

**Q.** What about the “increase in the number of correct words immediately recalled after the 3rd trial of VLT, compared to placebo” value ([1]; 100 mcg single dose, pooled interim analysis, 9 Impaired and 4 Healthy Elderly) of the same compound?
**A.** 1.5 words

**Q.** What about the “increase in the number of correct words recalled after 45 min delayed recall trial of VLT, compared to placebo” value ([1]; 1000 mcg single dose, pooled interim analysis) of the same compound?
**A.** 1.6 words

**Q.** What about the “amplitude of Event-Related Potential P600 during VLT” value [2] of the same compound?
**A.** strongest increase of amplitude

**Q.** And the “amplitude of Event-Related Potential P600 during VLT” value ([2]; listed as Roflumilast)?
**A.** increased amplitude

— US10357486B2, “Treatment of cognitive impairment with PDE4 inhibitor” (Universiteit Maastricht, priority 2013, dated 2019)
